Data published in US10335365B2, “Bladder cancer specific ligand peptides” (The Regents of the University of California, priority 2009, dated 2019).
“Also recorded” adds a separate entry of the source. Positions of bridges follow the written chain, without caps; N, C: chain ends. Non-standard residues stand in square brackets, D forms with d. No end group written: not given here.

How the values were obtained:
[1] = system: normal canine bladder urothelial cells; experiment: Whole cell binding assay of Example 2, normal canine urothelial cells; settings: PLZ4 beads
Procedure: (§1) This experiment was repeated 3 times for cell lines. […] 5637 human bladder cancer cell line; b. […] The average diameter of the beads is 90 μm. […] This experiment was repeated for 3 times. (200×)
(§2) To determine the binding of PLZ4 to canine TCC cell lines, whole cell binding assay was performed. PLZ4 was synthesized on TentaGel S NH2 resin beads (Rapp Polymere Gmbh, Germany) (Pegram, et al., J Clin Oncol (1998) 16:2659-2671), and incubated with single suspensions of five different canine carcinoma cell lines including K9TCC-PU, K9TCC-PU-AxA, K9TCC-PU-In, K9TCC-PU-AxC, and K9TCC-PU-Nk (kindly provided by Deborah Knapp at Purdue University, West Lafayette, Ind., USA) at 10^6 cells/ml. The negative control was normal urothelial cells obtained from dogs that were euthanized due to non-bladder-related disorders. Human bladder cancer cell line, 5637 were served as the positive control. If PLZ4 bound to cells in suspension, then the bead surface was covered with cells. Over 95% of the bead surface was covered with 5637 and K9TCC cells (FIG. 7A-a and b, respectively).

[2] = system: cells isolated from urine specimens of patients actively treated with BCG intravesical therapy; assay type: binding, human; settings: 4 consecutive patients with no evidence of bladder cancer
[3] = system: peripheral blood mononuclear cells (PBMC); experiment: Whole cell bead binding assay, PBMC; parameters: species or system human; settings: peptide on beads
Procedure: Four bladder cancer cell lines including 5637 (HTB-9), SCaBER, TCCSUP (HTB-5), and T24 (HTB-4) were purchased from the American Type Culture Collection (Manassas, Va.). The isolation, characterization and maintenance of normal urothelial cells was previously described in detail (Bagai, et al., J Biol Chem, (2002) 277: 23828-23837). Normal peripheral blood mononuclear cells were prepared by using the Ficoll-Paque gradient method from peripheral blood of healthy donors. Bladder cancer tissue obtained from cystectomy was cut into pieces, digested with collagenase at 37° C. for 1-2 hours per the manufacturer's protocol, and filtered through a 40-μm strainer to make single cell suspension. Tumor cells were then isolated with Ficoll-Paque gradient method (800 g, 30 min at 4° C.). Informed consent was obtained from each patient or healthy donor before specimens were collected.
The beads were washed extensively with double-distilled water and phosphate-buffered saline (PBS) before screening. Bladder cancer cells and normal urothelial cells were detached from culture dishes with trypsin/EDTA or a Detach kit (PromoCell, Heidelberg, Germany), washed with their corresponding culture medium, resuspended at 10^6 cells/ml and incubated with OBOC beads in Petri dishes in a humidified CO2 incubator at 37° C. with shaking (60 rpm). […]

whole blood cells = experiment: Whole cell bead binding assay, whole blood cells; parameters: species or system human; settings: peptide on beads
[4] = system: bladder lymphoid hyperplasia specimen; experiment: Binding to canine bladder lymphoid hyperplasia specimen; settings: data not shown
[5] = system: bladder cells from a dog with chronic cystitis; experiment: Whole cell binding assay of Example 2, chronic cystitis bladder cells; parameters: species or system canine; settings: PLZ4 beads
Procedure: as §1, §2

[6] = system: 12 cell lines with different origins; experiment: Whole cell bead binding assay, 12 cell lines of different origins; parameters: species or system human
fibroblasts = experiment: Whole cell bead binding assay, fibroblasts; settings: peptide on beads
[7] = system: parental K562 cells or cells transfected other integrins; experiment: Bead binding to parental K562 cells or cells transfected with other integrins; settings: OBOC beads bearing PLZ4
Procedure: Here, OBOC beads bearing PLZ4 peptides on the surface were incubated with K562 cells transfected with various integrins. K562 cells express endogenous a501 integrin. […] Several other ligands obtained from the initial screening also contain the DGR motif. […] To identify which amino acids are involved in determining cell binding and binding specificity, “alanine walk” was performed combined with the rainbow bead coding methods (Luo, et al., J Comb Chem, (2008) 10: 599-604). The amino acids aspartic acid (D, the X2 position), arginine (R, X4) and phenylalanine (F, X7) are important for cell binding. Replacement of any of these amino acids with alanine completely abolished the binding of the peptides to 5637 cells (FIG. 6B). […] Methionine at the X5 position could be replaced to many other amino acids without compromising the binding affinity. Based on this analysis, the three amino acids (D, G and R) at the N-terminus together with the two amino acids (G and F) at the C-terminus determine the binding specificity. Therefore, the binding pocket may be in the clover shape: one for the N-terminal three amino acids, one for the C-terminal two amino acids and a middle pocket. So w the depth of the middle binding pocket by adding different numbers of glycine residue to the X5 position. […]

For “cQDGRMGFc ([dC]QDGRMGF[dC]; disulfide 1-9 (inferred)) [PLZ4, bladder cancer-specific ligand peptide]”, the “binding to normal canine bladder urothelial cells” value [1] was “no cell binding”, the “binding to cells from urine of patients actively treated with BCG” value [2] was “did not bind” and the “binding to peripheral blood mononuclear cells” value [3] was “did not bind”. For the same substance, the “binding to whole blood cells” value (whole blood cells) was “did not bind”, the “binding to a bladder lymphoid hyperplasia specimen” value [4] was “not to a bladder lymphoid hyperplasia specimen” and the “binding to bladder cells from a dog with chronic cystitis” value [5] was “no cell binding”. The “binding to 12 cell lines with different origins” value [6] was “did not bind to 10 out of 12 cell lines; also recorded: only bought to one of 12”, the binding to fibroblasts (fibroblasts) was “did not bind” and the “binding to parental K562 cells or cells transfected with other integrins” value [7] was “not to the parental K562 cells or cells transfected other integrins”.
